Source: ChEMBL document CHEMBL1201862, “PubChem BioAssay data set” (2004)
Active and inactive are the calls of the source.

How the values were obtained:
Cytochrome P450 2C9 = Cytochrome P450 2C9 (Homo sapiens, UniProt P11712)
[1] = Luminescence Cell-Based Dose Confirmation HTS to Identify Activators of 5'UTR Stem-Loop Driven Alpha-Synuclein mRNA Translation in H4 Neuroglioblastoma Cells. [Related pubchem assays: 1829 (Project Summary), 1814 (Primary HTS)]; type: functional
H4 = assay: Luminescence Cell-Based Dose Response HTS to Identify Activators of 5'UTR Stem-Loop Driven Prion Protein mRNA Translation in H4 Neuroglioblastoma Cells. [Related pubchem assays: 1829 (Project Summary), 1814 (Primary HTS)]; type: functional; settings: Homo sapiens
[2] = Luminescence Cell-Based Dose Response HTS to Identify Activators of Luciferase Translation or Activity in H4 […] Cells. [Related pubchem assays: 1829 (Project Summary), 1814 (Primary HTS)]; type: functional
Cytochrome P450 1A2 = target: T1, Cytochrome P450 1A2 (Homo sapiens, UniProt P05177);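 also: PubChem cytochrome P450 panel assay, CYP1A2 panel member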
T1 sequence (P05177 whole entry): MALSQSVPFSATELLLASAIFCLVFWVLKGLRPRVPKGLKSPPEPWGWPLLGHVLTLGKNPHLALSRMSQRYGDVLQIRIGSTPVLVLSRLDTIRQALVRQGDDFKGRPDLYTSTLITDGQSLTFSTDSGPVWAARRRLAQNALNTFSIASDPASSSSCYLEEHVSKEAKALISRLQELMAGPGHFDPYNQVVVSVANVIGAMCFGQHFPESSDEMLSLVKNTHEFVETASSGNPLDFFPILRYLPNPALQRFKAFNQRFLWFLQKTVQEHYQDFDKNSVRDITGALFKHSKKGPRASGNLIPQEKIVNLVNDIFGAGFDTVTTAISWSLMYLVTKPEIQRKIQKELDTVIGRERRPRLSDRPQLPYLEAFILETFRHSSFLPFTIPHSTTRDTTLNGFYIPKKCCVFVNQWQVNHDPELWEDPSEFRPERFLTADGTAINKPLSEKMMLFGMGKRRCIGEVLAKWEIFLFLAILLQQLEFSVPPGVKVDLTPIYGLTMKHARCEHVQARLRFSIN

Cytochrome P450 2D6 = Cytochrome P450 2D6 (Homo sapiens, UniProt P10635);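 also: CYP2D6 member of a cytochrome P450 panel assay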
Sequence of Cytochrome P450 2D6 (P10635 whole entry): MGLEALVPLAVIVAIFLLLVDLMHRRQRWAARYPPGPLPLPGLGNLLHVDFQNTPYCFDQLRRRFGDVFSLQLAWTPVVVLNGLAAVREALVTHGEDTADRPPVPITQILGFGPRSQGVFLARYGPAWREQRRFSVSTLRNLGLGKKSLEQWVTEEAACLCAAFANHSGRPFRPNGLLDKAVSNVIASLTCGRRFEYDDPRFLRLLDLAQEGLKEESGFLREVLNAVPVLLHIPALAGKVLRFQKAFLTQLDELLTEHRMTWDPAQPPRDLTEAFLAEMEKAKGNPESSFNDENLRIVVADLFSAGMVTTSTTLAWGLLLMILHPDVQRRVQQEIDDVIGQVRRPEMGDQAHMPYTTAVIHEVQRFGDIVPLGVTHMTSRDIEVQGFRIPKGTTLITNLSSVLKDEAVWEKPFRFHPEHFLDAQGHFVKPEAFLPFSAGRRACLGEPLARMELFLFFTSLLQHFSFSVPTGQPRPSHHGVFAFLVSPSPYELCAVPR

[3] = LGR2 antagonists, dose response, cell-based, HEK293, CRE-luciferase reporter, cherry pick, set 2 (AID 743343); type: functional;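 also: transfected cells were stimulated with diluted bursicon conditioned medium after compound addition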
[4] = MC4R antagonists, dose response, counter-screen for LGR2 antagonist project, cell-based, plate reader, cherry pick (AID 743444); type: functional;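 also: transfected HEK 293 cells stimulated with alpha-MSH peptide; potency of inhibitors of the alpha-MSH evoked signal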
Cytochrome P450 2C19 = Cytochrome P450 2C19 (Homo sapiens, UniProt P33261); assay: Cytochrome panel assay with activity outcomes. Panel member name: p450-cyp2c19 Compounds with AC50 equal or less than 10 uM are considered active; type: functional; settings: read-out: AC50
Sequence of Cytochrome P450 2C19 (P33261 whole entry): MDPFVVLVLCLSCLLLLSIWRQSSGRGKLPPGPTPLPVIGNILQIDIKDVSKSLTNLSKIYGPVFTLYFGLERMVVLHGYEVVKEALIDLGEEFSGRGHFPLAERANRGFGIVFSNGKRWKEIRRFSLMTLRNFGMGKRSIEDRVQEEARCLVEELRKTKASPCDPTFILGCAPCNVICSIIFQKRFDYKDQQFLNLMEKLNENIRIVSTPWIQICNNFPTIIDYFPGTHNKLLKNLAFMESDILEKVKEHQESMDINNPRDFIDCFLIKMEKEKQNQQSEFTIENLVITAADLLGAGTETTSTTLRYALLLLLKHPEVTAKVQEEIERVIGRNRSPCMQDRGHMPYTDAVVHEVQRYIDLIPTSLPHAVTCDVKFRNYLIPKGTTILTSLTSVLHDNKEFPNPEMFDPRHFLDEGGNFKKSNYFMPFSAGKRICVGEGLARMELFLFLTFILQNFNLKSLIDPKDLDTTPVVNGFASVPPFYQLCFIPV

cells [5] = type: functional, cell-based
cells [6] = type: functional, cell-based; remark: listed apart in the source
Streptokinase A = target: T2, Streptokinase A (Streptococcus pyogenes serotype M1, UniProt P10520); assay: S. pyogenes streptokinase expression inhibitors, potency, dose response, plasminogen activation absorbance, OD405 (AID 1914); type: functional, Streptococcus pyogenes M1 GAS;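 also: secreted streptokinase activity via plasminogen activation per viability signal from cell pellet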
T2 sequence (P10520 whole entry): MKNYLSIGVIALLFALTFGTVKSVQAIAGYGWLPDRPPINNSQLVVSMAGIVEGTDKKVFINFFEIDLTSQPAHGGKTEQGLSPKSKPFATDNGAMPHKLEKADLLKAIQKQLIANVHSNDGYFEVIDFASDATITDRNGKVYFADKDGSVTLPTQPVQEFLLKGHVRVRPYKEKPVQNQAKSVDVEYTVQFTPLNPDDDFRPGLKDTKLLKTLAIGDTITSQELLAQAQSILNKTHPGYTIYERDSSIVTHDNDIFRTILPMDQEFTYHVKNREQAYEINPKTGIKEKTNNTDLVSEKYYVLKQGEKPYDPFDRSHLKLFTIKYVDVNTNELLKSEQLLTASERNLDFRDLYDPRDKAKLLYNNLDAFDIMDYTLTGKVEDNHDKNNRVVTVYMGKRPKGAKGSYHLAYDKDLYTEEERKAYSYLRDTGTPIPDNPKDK

[7] = test system: Streptococcus sp. 'group A'; assay: growth inhibition of control SK(-) GAS strain, dose response, counter-screen for streptokinase expression inhibitor project, luminescence, kanamycin, BacTiterGlo, confirmation (AID 1900); type: functional, organism-based
Streptococcus = assay: Group A Streptococcus viability loss, dose response, counter-screen for streptokinase expression inhibitor project, luminescence, BacTiterGlo (AID 1915); type: functional, organism-based;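 also: potency for reduction of bacterial viability or growth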
[8] = Luminescence Cell-Based Dose Retest to Confirm Inhibitors of Cancer Stem Cells. [Related pubchem assays (depositor defined):AID2717, AID2721]; type: functional; settings: Homo sapiens
[9] = Shn3 3'UTR reporter inhibitors, dose response, cell-based, Clone20 osteoblasts, firefly luciferase, cherry-picked (AID 624132); type: functional;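 also: firefly luciferase luminescence from reporter carrying the Shn3 3'UTR in osteoblasts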
[10] = growth suppression of PTEN-null colon cells, dose response, cell-based, HCT116 PTEN knockout (AID 1047); type: functional;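 also: HCT116 colon tumor cells with PTEN knocked out; cells exposed to compound for 60 hours before readout; potency for loss of cell viability measured by luminescence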
INS1 = assay: beta cell apoptosis inhibitors, cytokine rescue, dose response, luminescence, retest (AID 449756); type: functional, cell-based; settings: Rattus norvegicus;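 also: cell death triggered by IL-1 beta plus TNF-alpha plus IFN-gamma mixture; protective hits raise ATP signal compared with cytokine alone wells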
[11] = growth suppression of beta-catenin-knockout colon cells, dose response, cell-based, HCT116, human colon tumor (AID 1045); type: functional;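 also: HCT116 colon tumor cells with beta catenin knocked out; cells exposed to compound for 60 hours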
[12] = control 3'UTR Renilla luciferase suppression, dose response, counter-screen for Shn3 inhibitor project, cell-based, Clone20-Shn3RL, cherry-picked (AID 624133); type: functional
[13] = HepG2 cell cytotoxicity, dose response, cytotoxicity control for Shn3 inhibitor project, CellTiter-Glo, cherry-picked (AID 624134); type: functional, cell-based
Cytochrome P450 3A4 = Cytochrome P450 3A4 (Homo sapiens, UniProt P08684);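 also: CYP3A4 tested as one member of a cytochrome P450 panel screen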
Sequence of Cytochrome P450 3A4 (P08684 whole entry): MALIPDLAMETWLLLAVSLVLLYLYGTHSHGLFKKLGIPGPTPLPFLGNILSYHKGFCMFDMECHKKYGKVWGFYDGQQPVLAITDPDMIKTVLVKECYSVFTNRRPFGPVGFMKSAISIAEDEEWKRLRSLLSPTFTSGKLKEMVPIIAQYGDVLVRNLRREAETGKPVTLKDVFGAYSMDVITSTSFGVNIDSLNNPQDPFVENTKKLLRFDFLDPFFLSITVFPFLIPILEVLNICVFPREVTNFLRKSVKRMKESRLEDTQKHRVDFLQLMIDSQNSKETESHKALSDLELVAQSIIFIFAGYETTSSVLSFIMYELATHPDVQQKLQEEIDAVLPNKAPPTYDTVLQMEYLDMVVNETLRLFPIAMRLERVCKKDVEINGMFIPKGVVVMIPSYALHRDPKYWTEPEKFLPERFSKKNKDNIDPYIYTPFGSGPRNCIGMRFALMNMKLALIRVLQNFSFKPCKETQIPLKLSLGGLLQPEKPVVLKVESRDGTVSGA

Sequence of Cytochrome P450 2C9 (P11712 whole entry): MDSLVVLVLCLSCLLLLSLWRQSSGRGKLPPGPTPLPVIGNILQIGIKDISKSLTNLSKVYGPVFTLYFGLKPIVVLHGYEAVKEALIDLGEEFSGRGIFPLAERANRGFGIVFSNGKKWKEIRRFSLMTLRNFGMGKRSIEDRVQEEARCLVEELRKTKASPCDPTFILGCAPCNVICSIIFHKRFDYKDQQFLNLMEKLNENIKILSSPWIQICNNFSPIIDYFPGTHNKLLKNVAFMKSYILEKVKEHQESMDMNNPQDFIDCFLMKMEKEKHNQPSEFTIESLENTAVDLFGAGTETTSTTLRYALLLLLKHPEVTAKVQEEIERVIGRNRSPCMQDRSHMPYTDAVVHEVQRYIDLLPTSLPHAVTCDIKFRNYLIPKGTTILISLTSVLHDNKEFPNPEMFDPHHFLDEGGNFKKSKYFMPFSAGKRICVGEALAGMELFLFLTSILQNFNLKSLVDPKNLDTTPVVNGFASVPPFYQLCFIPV

CC(C)OC(=O)CC12CN(C)CC(CC(=O)OC(C)C)(CN(C)C1)C2=O
AC50 (Cytochrome P450 2C9): inconclusive
EC50 [1]: 47.6 µM (active)
EC50 (H4): 37 µM (active)
EC50 [2]: 72.4 µM (active)

COc1ccc(S(=O)(=O)Nc2cccc(Cl)c2)cc1OC
AC50 (Cytochrome P450 2C9): inconclusive
AC50 (Cytochrome P450 1A2): 31.6 µM (inconclusive)

COc1cc(/C=C/C(=O)Nc2cc(C(F)(F)F)ccc2Cl)cc(OC)c1OC
AC50 (Cytochrome P450 2C9): inconclusive
AC50 (Cytochrome P450 1A2): 15.8 µM (inconclusive)
AC50 (Cytochrome P450 2D6): 0.00562 µM (inconclusive)

Cc1c(NC(=O)c2ccc(-c3ccccc3)cc2)cccc1C(=O)O
AC50 [3]: 17.1 µM (active)
AC50 [4]: 13.5 µM (active)

NS(=O)(=O)c1ccc(CNC(=O)/C=C/c2c(Cl)cccc2Cl)cc1
AC50 (Cytochrome P450 2C9): inconclusive
AC50 (Cytochrome P450 2C19): 25.1 µM (inconclusive)

CC(C)(C)NC(=O)CN(Cc1ccc2c(c1)OCO2)C(=O)CNS(=O)(=O)c1ccc(F)cc1
EC50 (cells [5]): > 350 µM (not active)
EC50 (cells [6]): > 350 µM (not active)

O=S(=O)(NCc1nnc2c(C(F)(F)F)cc(Cl)cn12)c1ccccc1
EC50 (cells [5]): > 350 µM (not active)
EC50 (Streptokinase A): > 150 µM (not active)
EC50 [7]: > 150 µM (not active)
EC50 (cells [6]): > 350 µM (not active)
EC50 (Streptococcus): > 150 µM (not active)

Cc1nn(Cc2c(Cl)cccc2Cl)c(C)c1NC(=O)c1cn(-c2ccccc2)nc1-c1ccccc1
EC50 (Streptokinase A): > 150 µM (not active)
EC50 [7]: 8.01 µM (active)
EC50 (Streptococcus): 21.6 µM (active)
AC50 [8]: 1.01 µM (active)
AC50 [9]: 55 µM (active)
EC50 [10]: 4.36 µM (active)
AC50 (INS1): 2.46 µM (active)
EC50 [11]: 4.04 µM (active)
AC50 [12]: 25.8 µM (active)

O=C1CCCc2ccccc2N1Cc1ccc(F)cc1
EC50 (cells [5]): > 350 µM (not active)
EC50 (cells [6]): > 350 µM (not active)

COc1cc(CC(=O)Nc2nc(-c3ccc(F)c(F)c3)cs2)cc(OC)c1OC
AC50 [13]: 6.77 µM (active)
AC50 [9]: 3.92 µM (active)
AC50 (INS1): 6.89 µM (active)
AC50 [12]: 19.2 µM (active)

O=c1c2ccccc2nnn1CSc1nnnn1-c1ccccc1
AC50 (Cytochrome P450 2C9): inconclusive
AC50 (Cytochrome P450 1A2): 25.1 µM (inconclusive)
AC50 (Cytochrome P450 3A4): 12.6 µM (inconclusive)
AC50 (Cytochrome P450 2D6): 17.8 µM (inconclusive)

O=C(/C=C/c1cc2c(cc1Br)OCO2)NCc1ccc(Cl)cc1
AC50 (Cytochrome P450 2C9): inconclusive
AC50 (Cytochrome P450 2C19): 17.8 µM (inconclusive)

COc1ccccc1C(=O)Nc1ccccc1SC(=O)c1ccccc1OC
EC50 (cells [5]): > 350 µM (not active)
EC50 (cells [6]): > 350 µM (not active)
